Data reported in patent publication US20100113535A1, “TREATMENT OF PRESBYOPIA WITH ALPHA- PICOLINIC ACID AND ITS ANALOGS” (The Department of Veterans Affairs Technology Transfer …, priority 2005, published 2010).
Where two headings read alike, the source gives them in different places.

Columns and labels:
PLE cells = experiment: Induction of apoptosis in PLE cells (DNA fragmentation detection kit); type: cell-based, porcine; conditions: for effect on monolayer growth, floating cells and DNA laddering staining: 48 hours, 3 mM picolinic acid, 0.3 mM fusaric acid; for state of cells at 72 hours: 3 mmol/L PA, 0.3 mmol/L FA, results not shown; for induction of apoptosis in PLE cells: discussion statement
Method: FIG. 6. Induction of Apoptosis in PLE cells. PLE cells were grown in 35 mm dishes in tissue culture. Analogs were added to media 24 hours after cells were plated. After 48 hours of incubation, floating or supernatant cells were spun onto slides and stained using the DNA fragmentation kit. The conditions are as follows: A. Control monolayer; B. Control stained supernatant; C. 3 mM picolinic acid monolayer; D. 3 mM picolinic acid stained supernatant; E. 0.3 mM fusaric acid monolayer; F. 0.3 mM fusaric acid stained supernatant.
The ability of PA and its analogs to induce apoptosis was detected with the DNA fragmentation detection kit (Oncogene Research Products, Boston, Mass.). One of the molecular effects of apoptosis is the formation of oligonucleosomal DNA fragments by DNA laddering (67). The kit includes a Klenow DNA polymerase that labels 3′-OH terminals of DNA, which are formed in the laddering process. Incorporated biotinylated nucleotides are then detected with a chromogenic labeling system of streptavidin-horseradish peroxidase diaminobenzidine. Cells were plated in 35-mm wells at a density of 50,000 cells per well. 24 hours after plating, analogs were added concurrently with fresh media. Pictures were taken after 48 hours of exposure to the analogs. Floating cells were washed and placed in Saccomanno's fixative (Shandon, Pittsburgh, Pa.), centrifuged onto Superfrost slides (Fisher Scientific, Pittsburgh, Pa.) with a CytoSpin centrifuge (Shandon, Pittsburgh, Pa.), and stained according to the protocol given.
To test for the role of apoptosis in the toxicity of PA and its analogs, the PLE cells were exposed to 0.3 mmol/L FA and 3 mmol/L of PA.

[1] = test system: porcine lens epithelial (PLE) cells; experiment: Toxicity of PA and its analogs to PLE cell growth (cell counts, 50% inhibitory concentration); type: cell-based; conditions: for IC50: Sus scrofa, 120 hours (five days) with substance, treated cell count equal to 50% of control
Method: FIG. 5. Toxicity of Picolinic Acid and its analogs in Pig Lens Epithelial Cells. Pig lens epithelial cells were plated in quadruplicate in 24 well trays at 5000 cells/well using minimal essential media plus 10% fetal calf serum (10% FCS MEM) with antibiotics. At 24 hours after plating, substances were added with a media change, at appropriate concentrations. Cells were allowed to grow for an additional 120 hours in the presence of the various substances. Cells were then counted, four dishes, in duplicate, and the cell counts were expressed as a percentage of the control cell counts.
Growth curve data were obtained from cells plated without any agents. Cell counts were performed daily on a total of eight wells per point, by combining four wells per count and performing counts in duplicate.
The toxicity of PA and its analogs to the PLE cells was tested according to the method of Senderoff et al. (66) PLE cells were plated in 24 well trays at 5000 cells per well in 1 mL of tissue culture medium (see above). The medium was changed at 24 hours, and new medium containing the analogs was added. Five days after addition of substances, cell counts were performed using a total of four wells per point, by combining two wells per count, and performing counts in duplicate. Results were expressed as a percentage of the untreated or control cell counts.

corneal endothelium = experiment: Toxicity in corneal endothelium (Janus Green staining of pig corneas); conditions: for Janus Green staining relative to untreated control: 48 hours, corneal endothelium in 2% FCS M199; for Avg Abs650/SD (Janus Green stain eluted from trephine cut-outs of treated corneas): 48 hr in 2% FCS M-199, PA 3 mM, FA 0.3 mM, absorbance at 650 nm
Method: Testing of Toxicity in Corneal endothelium: To test for the effects of PA and FA on corneal endothelium, fresh corneas from pig eyes were aseptically dissected out, with a 2 mm scleral ring and placed in 2% FCS M-199 medium with antibiotics, as M-199 medium has previously been used for corneal experiments (84).
Times of incubation and concentrations which were used in the apoptosis experiment were implemented, i.e. 48 hours at 3 mM PA and 0.3 mM FA. Serum concentration of 2% was employed to maintain the corneal cells without undo stimulation. Corneas were rinsed with Hanks Balanced Salt Solution (HBSS) and stained for 90 seconds with 0.2 mL 1% Janus Green (85) in HBSS as a test for viability. The corneas were again rinsed. Negative controls were set up by placing corneas in 100% ethanol for 5 minutes prior to addition of Janus Green, to give staining in 100% “damaged” corneas. Using an 8 mm trephine, the central section of the cornea was punched out, and the dye was eluted with 2 ml 100% ethanol and the absorbance was measured at 650 nm. The Janus Green staining experiment of corneas was repeated twice. Duplicate samples were used for drug conditions and triplicate samples for controls. Janus green staining was also carried out on fresh cornea, for comparison purposes.

WI-38 cells = conditions: 0.5 mM fusaric acid, cited from earlier work
[2] = from FIG. 5, read-out: IC50 μg/mL
[3] = from FIG. 5, read-out: IC50 mmol/L

Structure (SMILES)	effect on monolayer growth, floating cells and DNA laddering staining (PLE cells)	effect on monolayer growth, floating cells and DNA laddering staining (PLE cells; listed as FA)	state of cells at 72 hours (PLE cells)	induction of apoptosis in PLE cells (PLE cells)	IC50 [1, 2]	IC50 [1, 3]	times more toxic than PA (on concentration basis) ([1]; from IC50 data)	Janus Green staining relative to untreated control (corneal endothelium)	Avg Abs650/SD (Janus Green stain eluted from trephine cut-outs of treated corneas) (corneal endothelium)	viability of confluent WI-38 cells (WI-38 cells; confluent cells, 48 hour incubation)	decrease in viability of logarithmically growing WI-38 cells (WI-38 cells; logarithmically growing cells, by 30 hours)	times less toxic than PA ([1]; from IC50 data)	effect on monolayer growth, floating cells and DNA laddering staining (PLE cells; listed as PA)	state of cells at 72 hours (PLE cells; listed as PA)
CCCCc1ccc(C(=O)O)nc1 [Fusaric acid, fusaric acid]	many floating cells, with strong nuclear staining	significant cell death by the apoptotic pathway	no living cells were seen	rapidly induced apoptosis	5.6 µg/mL	0.031 mmol/L	about 15 times	stained less than the untreated control	0.287 ± 0.011	no significant drop in viability	76%			
O=C(O)c1cccc(C(=O)O)n1 [Dipicolinic acid]					185 µg/mL	1.11 mmol/L						2.5 times		
O=C(O)c1ccccn1 [Picolinic acid]	inhibits growth of the monolayer with few floating cells		many floating cells	rapidly induced apoptosis	55.3 µg/mL	0.449 mmol/L		stained less than the untreated control	0.321 ± 0.041				inhibition of cell growth but little cell death	very few cells were still attached
O=C(O)c1cccnc1 [Nicotinic acid, nicotinic acid]					539 µg/mL	4.38 mmol/L								
